Patent US6008215A, “Benzonaphthyridines as bronchial therapeutics” (Byk Gulden Lomberg Chemische Fabrik GmbH, priority 1996, dated 1999)
Counter-ions that a name gives are not always drawn.

Legend:
Format in all cases: biochemical
PDE4 = assay: Inhibition of PDE isoenzymes: PDE4 (cAMP-specific), cytosol of human polymorphonuclear leukocytes; settings: PDE4, cytosol of human PMNL, cAMP as substrate, motapizone (1 μM) present
PDE3 = PDE3 (Homo sapiens, UniProt Q14432); assay: Inhibition of PDE isoenzymes: PDE3 (cGMP-inhibited), homogenates of human blood platelets; settings: read-out: -log IC50, PDE3 (converted)
Chain of PDE3 (Q14432 whole entry): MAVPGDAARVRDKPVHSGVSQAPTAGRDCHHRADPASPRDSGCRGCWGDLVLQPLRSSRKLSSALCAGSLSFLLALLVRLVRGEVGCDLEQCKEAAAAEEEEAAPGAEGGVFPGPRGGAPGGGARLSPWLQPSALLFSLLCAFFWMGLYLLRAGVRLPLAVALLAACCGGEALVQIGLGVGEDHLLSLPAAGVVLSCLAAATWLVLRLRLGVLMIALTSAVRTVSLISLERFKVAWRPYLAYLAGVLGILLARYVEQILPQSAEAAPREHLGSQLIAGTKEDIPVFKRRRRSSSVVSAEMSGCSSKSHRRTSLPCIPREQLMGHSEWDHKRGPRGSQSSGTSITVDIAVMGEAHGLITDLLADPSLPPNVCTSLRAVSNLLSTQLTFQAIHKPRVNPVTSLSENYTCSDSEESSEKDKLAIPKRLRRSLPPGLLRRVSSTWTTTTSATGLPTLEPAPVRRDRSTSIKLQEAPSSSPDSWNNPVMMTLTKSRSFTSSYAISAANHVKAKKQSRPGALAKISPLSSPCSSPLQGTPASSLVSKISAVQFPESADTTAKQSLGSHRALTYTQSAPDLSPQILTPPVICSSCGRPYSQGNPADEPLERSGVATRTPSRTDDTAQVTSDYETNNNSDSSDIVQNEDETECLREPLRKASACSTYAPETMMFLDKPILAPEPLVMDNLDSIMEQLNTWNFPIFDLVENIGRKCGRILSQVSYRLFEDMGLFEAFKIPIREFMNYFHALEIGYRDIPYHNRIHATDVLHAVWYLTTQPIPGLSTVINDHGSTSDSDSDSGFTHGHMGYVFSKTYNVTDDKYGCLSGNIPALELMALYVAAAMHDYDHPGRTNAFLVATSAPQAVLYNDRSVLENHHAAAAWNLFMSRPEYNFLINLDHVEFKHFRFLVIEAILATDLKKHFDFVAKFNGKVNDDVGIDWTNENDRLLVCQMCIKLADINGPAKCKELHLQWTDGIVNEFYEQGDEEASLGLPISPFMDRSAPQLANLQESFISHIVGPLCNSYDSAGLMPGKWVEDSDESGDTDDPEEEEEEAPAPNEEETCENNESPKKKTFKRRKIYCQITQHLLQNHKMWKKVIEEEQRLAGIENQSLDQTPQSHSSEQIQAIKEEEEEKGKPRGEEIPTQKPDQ
Experimental: (§1) The PDE activity was determined according to Thompson et al. (1) with some modifications (2). The test samples contained 40 mM tris HCl (pH 7.4), 5 mM MgCl2, 0.5 μM cAMP or cGMP, [^3 H] cAMP or [^3 H]cGMP (about 50,000 cpm/sample), the PDE isoenzyme-specific additions described in greater detail below, the indicated concentrations of inhibitor and an aliquot of the enzyme solution in a total sample volume of 200 μl. […] After preincubation at 37° C. for 5 minutes, the reaction was started by addition of the substrate (cAMP or cGMP). The samples were incubated at 37° C. for a further 15 min. The reaction was terminated by addition of 50 μl of 0.2N HCl. After cooling on ice for 10 minutes and addition of 25 μg of 5'-nucleotidase (snake venom from Crotalus atrox), the mixture was again incubated at 37° C. for 10 min and the samples were then applied to QAE Sephadex A-25 columns. The columns were eluted with 2 ml of 30 mM ammonium formate (pH 6.0). The radioactivity of the eluate was measured and corrected by the corresponding blank values. The proportion of hydrolyzed nucleotide in no case exceeded 20% of the original substrate concentration.
PDE3 (cGMP-inhibited) and PDE5 (cGMP-specific) were investigated in homogenates of human blood platelets [Schudt et al. (4)] using cAMP or cGMP as a substrate.
(§2) The IC50 values were determined from the concentration-inhibition curves by nonlinear regression using the GraphPad InPlot™ program (GraphPad Software Inc., Philadelphia, U.S.A.).
In Table 1 below, the inhibitory concentrations determined according to Section A1 [inhibitory concentrations as -log IC50 (mol/l)] for the compounds according to the invention are indicated for various PDE isoenzymes. The numbers of the compounds correspond to the numbers of the examples.

PDE5 = target: T1, PDE5 (Homo sapiens, UniProt O76074); assay: Inhibition of PDE isoenzymes: PDE5 (cGMP-specific), homogenates of human blood platelets; settings: read-out: -log IC50, PDE5 (converted)
T1 construct: were investigated in homogenates of human blood platelets; from tissue; host or cells: human blood platelets, homogenate
Experimental: as §1, with “The columns were eluted with 2 ml of 30 mM ammonium formate (pH 6.0).” left out, “The proportion of hydrolyzed nucleotide in no case exceeded 20% of the original substrate concentration.” left out
as §2
(§3) In Table 1 below, the inhibitory concentrations determined according to Section A1 [inhibitory concentrations as -log IC50 (mol/l)] for the compounds according to the invention are indicated for various PDE isoenzymes. […]

PDE2 = target: T2, PDE2 (Rattus norvegicus, UniProt Q01062); assay: Inhibition of PDE isoenzymes: PDE2 (cGMP-stimulated) from rat hearts; settings: cGMP (5 μM), cAMP as substrate, read-out: -log IC50, PDE2 (converted)
T2 construct: from rat hearts was purified chromatographically; from tissue; host or cells: rat heart, chromatographically purified
T2 sequence (Q01062 1-928): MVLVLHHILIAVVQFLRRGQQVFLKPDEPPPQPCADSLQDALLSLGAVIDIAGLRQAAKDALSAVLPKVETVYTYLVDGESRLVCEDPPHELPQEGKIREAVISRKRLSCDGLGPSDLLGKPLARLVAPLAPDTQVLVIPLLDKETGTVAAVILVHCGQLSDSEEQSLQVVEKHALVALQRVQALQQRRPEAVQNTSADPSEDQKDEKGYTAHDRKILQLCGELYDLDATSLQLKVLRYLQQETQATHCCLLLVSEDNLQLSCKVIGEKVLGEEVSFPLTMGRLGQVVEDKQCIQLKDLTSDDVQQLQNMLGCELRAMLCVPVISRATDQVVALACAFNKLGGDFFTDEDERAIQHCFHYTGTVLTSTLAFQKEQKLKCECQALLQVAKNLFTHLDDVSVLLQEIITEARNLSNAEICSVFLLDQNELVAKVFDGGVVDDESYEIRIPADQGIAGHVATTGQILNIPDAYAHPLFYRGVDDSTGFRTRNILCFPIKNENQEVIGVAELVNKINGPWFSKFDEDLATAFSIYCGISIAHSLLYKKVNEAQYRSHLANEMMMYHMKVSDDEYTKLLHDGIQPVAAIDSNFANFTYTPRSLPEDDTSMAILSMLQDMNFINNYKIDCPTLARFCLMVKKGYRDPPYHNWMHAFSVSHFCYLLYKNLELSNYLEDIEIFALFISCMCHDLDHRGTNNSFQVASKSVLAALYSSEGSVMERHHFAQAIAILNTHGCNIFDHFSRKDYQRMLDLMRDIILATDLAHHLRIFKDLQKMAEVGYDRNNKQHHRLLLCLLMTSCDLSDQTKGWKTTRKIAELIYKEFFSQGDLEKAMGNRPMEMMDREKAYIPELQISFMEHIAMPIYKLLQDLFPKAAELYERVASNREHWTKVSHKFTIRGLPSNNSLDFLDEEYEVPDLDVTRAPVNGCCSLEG
Experimental: as §1, with “The columns were eluted with 2 ml of 30 mM ammonium formate (pH 6.0).” left out, “The proportion of hydrolyzed nucleotide in no case exceeded 20% of the original substrate concentration.” left out
as §2, §3

PDE1 = assay: Inhibition of PDE isoenzymes: PDE1 (Ca^2+/calmodulin-dependent) from bovine brain; settings: Ca^2+ (1 mM), calmodulin (100 nM), cGMP as substrate

| -log IC50, PDE4 (PDE4) | IC50 (PDE3) [nM] | IC50 (PDE5) [nM] | IC50 (PDE2) [nM] | -log IC50, PDE1 (PDE1) | Compound |
| --- | --- | --- | --- | --- | --- |
| 6.45 | 72.4 | – | – | – | COc1cc2c(cc1OC)[C@H]1CN(C)CC[C@H]1N=C2c1ccc(C(=O)OC(C)C)cc1 (single isomer, unassigned) [Compound 3, (-)-cis-8,9-Dimethoxy-6-(4-isoropoxycarbonylphenyl)-2-methyl-1,2,3,4,4a,10b-hexahydrobenzo[c][1,6]naphthyridine hydrochloride] |
| 7.54 | 214 | 3550 | 15800 | < 4 -log(mol/l) | CCOc1cc2c(cc1OCC)[C@@H]1CN(C)CC[C@@H]1N=C2c1ccc(C(=O)OC)cc1.Cl (single isomer, unassigned) [Compound 4, (-)-cis-8,9-Diethoxy-6-(4-methoxycarbonylphenyl)-2-methyl-1,2,3,4,4a,10b-hexahydrobenzo[c][1,6]naphthyridine hydrochloride] |
| 7.75 | 70.8 | – | – | – | CCOc1cc2c(cc1OCC)[C@@H]1CN(C)CC[C@@H]1N=C2c1ccc(C(=O)OC(C)C)cc1.Cl (single isomer, unassigned) [Compound 5, (-)-cis-8,9-Diethoxy-6-(4-isopropoxycarbonylphenyl)-2-methyl-1,2,3,4,4a,10b-hexahydrobenzo[c][1,6]naphthyridine hydrochloride] |
| 7.85 | 58.9 | – | – | – | CCOc1cc2c(cc1OCC)[C@H]1CN(C)CC[C@H]1N=C2c1ccc(C(=O)N(C(C)C)C(C)C)cc1 (single isomer, unassigned) [Compound 11, (-)-cis-8,9-Diethoxy-6-(4-diisopropylaminocarbonylphenyl-2-methyl-1,2,3,4,4a,10b-hexahydrobenzo[c][1,6]naphthyridine hydrochloride] |
| 7.96 | 186 | – | – | – | CCOc1cc2c(cc1OCC)[C@H]1CN(C)CC[C@H]1N=C2c1ccc(C(=O)N(C(C)C)C2CCCCC2)cc1 (single isomer, unassigned) [Compound 16, (+)-cis-8,9-Diethoxy-6-(4-N-cyclohexyl-N-isopropylaminocarbonylphenyl)-2-methyl-1,2,3,4,4a,10b-hexahydrobenzo[c][1,6]naphthyridine hydrochloride] |
| 7.94 | 417 | – | – | – | CCCCN(CCCC)C(=O)c1ccc(C2=N[C@H]3CCN(C)C[C@H]3c3cc(OCC)c(OCC)cc32)cc1.Cl (single isomer, unassigned) [Compound 17, (+)-cis-8,9-Diethoxy-6-(4-dibutylaminocarbonylphenyl)-2-methyl-1,2,3,4,4a,10b-hexahydrobenzo[c][1,6]naphthyridine hydrochloride] |
| 7.87 | 182 | – | – | – | CCOc1cc2c(cc1OCC)[C@@H]1CN(C)CC[C@@H]1N=C2c1ccc(C(=O)N2CCCCCC2)cc1.Cl (single isomer, unassigned) [Compound 18, (-)-cis-8,9-Diethoxy-6-[4-(hexahydroazepin-1-yl-carbonyl)phenyl]-2-methyl-1,2,3,4,4a,10b-hexahydrobenzo[c][1,6]naphthyridine hydrochloride] |
| 8.18 | 27.5 | – | – | – | CCOc1cc2c(cc1OC)C(c1ccc(C(=O)N(C(C)C)C(C)C)cc1)=N[C@H]1CCN(C)C[C@@H]21.Cl (single isomer, unassigned) [Compound 19, (-)-cis-9-Ethoxy-8-methoxy-6-(4-diisopropylaminocarbonylphenyl)-2-methyl-1,2,3,4,4a,10b-hexahydrobenzo[c][1,6]naphthyridine hydrochloride] |
| 7.67 | 457 | – | – | – | CCOc1cc2c(cc1OC)C(c1ccc(C(=O)OC)cc1)=N[C@H]1CCN(C)C[C@@H]21.Cl (single isomer, unassigned) [Compound 21, (-)-cis-9-Ethoxy-8-methoxy-6-(4-methoxycarbonylphenyl)-2-methyl-1,2,3,4,4a,10b-hexahydrobenzo[c][1,6]naphthyridine hydrochloride] |
| 8.56 | 229 | – | – | – | CCCCN(CCCC)C(=O)c1ccc(C2=N[C@H]3CCN(C)C[C@H]3c3cc(OCC)c(OC)cc32)cc1.Cl (single isomer, unassigned) [Compound 23, (-)-cis-9-Ethoxy-8-methoxy-6-(4-dibutylaminocarbonylphenyl)-2-methyl-1,2,3,4,4a,10b-hexahydrobenzo[c][1,6]naphthyridine hydrochloride] |
| 8.51 | 22.9 | – | – | – | CCOc1cc2c(cc1OC)C(c1ccc(C(=O)N3CCCCCC3)cc1)=N[C@H]1CCN(C)C[C@@H]21 (single isomer, unassigned) [Compound 24, (-)-cis-9-Ethoxy-8-methoxy-6-[4-(hexahydroazepin-1-yl-carbonyl)phenyl]-2-methyl-1,2,3,4,4a,10b-hexahydrobenzo[c][1,6]naphthyridine] |
